Where a name gives a salt, the structure may show the parent alone.
Assays:
human platelets = assay: Inhibition of the binding of 3H-BIBU 52 to human platelets (fibrinogen binding test); settings: 3H-BIBU 52 5 nM, human platelets in plasma, room temperature, 20 minutes
Method: 1. Inhibition of the Binding of ^3 H-BIBU 52 to Human Platelets:
A suspension of human platelets in plasma is incubated with ^3 H-BIBU 52 [=(3S,5S)-5-[(4'-amidino-4-biphenylyl)-oxymethyl]-3-[(carboxyl)methyl]-2-pyrrolidinone[3-^3 H-4-biphenylyl]], which replaces the ligand ^125 I-fibrinogen known from the literature, (see DE-A-4,214-245) and varius concentrations of the substance to be tested. The free and bound ligand are separated by centrigation and determined quantitatively by scintillation counting. The inhibition of ^3 H-BIBU 52 binding by the test substance is determined from the measurement values.
For this, donor blood is withdrawn form an anticubital vein and anticoagulated with trisodium citrate (final concentration 13 mM). The blood is centriged at 170×g for 10 minutes and the supernatant platelet-rich plasma (PRP) is removed. The residual blood is centriged off under severe conditions once more to isolate the plasma. The PRP is diluted 1:10 with autologous plasma. 750 μl are incubated with 50 μl of physiological saline solution, 100 μl of test substance solution, 50 μl of 14C-sucrose (3,700 Bq) and 50 μl of ^3 H-BIBU 52 (final centration: 5 nM) at room temperature for 20 minutes. To measure the non-specific binding, 100 μl of BIBU 52 (final concentration: […]) are employed instead of the test substance. The samples are centrifuged at 10,000×g for 20 seconds and the supernatant is removed. 100 μl of this are measured for determination of the free ligand. The pellet is dissolved in 500 μl of 0.2N NaOH, […] of scintillator and 25 μl of 5N HCl are added to 450 μl and the sample is measured. The residual plasma which still remains in the pellet is determined from the ^14 C content and the bound ligand is determined from the ^3 H measurement. After subtraction of the non-specific binding, the pellet activity is plotted against the concentration f the test substance and the concentration for 50% inhibition of binding is determined.

Platelet aggregation = assay: Inhibition of collagen-induced platelet aggregation (method of Born and Cross) in platelet-rich plasma; type: cell-based, human (healthy test persons); settings: 10 minutes at 37° C., 50% change in optical density
Method: 2. Antithrombotic Action: Method Platelet aggregation is measured in platelet-rich plasma of healthy test persons by the method of Born and Cross (J. Physiol. 170, 397 (1964)). To inhibit coagulation, 3.14% sodium citrate is added to the blood in a volume ratio of 1:10. Collagen-induced aggregation The course of the decrease in the optical density of the platelet suspension after addition of the substance which induces aggregation is measured and recorded photometrically. The rate of aggregation is concluded from the angle of inclination of the density curve. The point on the curve at which the highest light transmission exists is used to calculate the "optical density". The amount of collagen is as low as possible, but is enough to result in a reaction curve which proceeds irreversibly. Commercially available collagen from Hormonchemie, Munich is used. Before addition of the collagen, the plasma is incubated with the substance for in each case 10 minutes at 37° C. An EC50 which is based on a 50% change in "optical density" in the sense of inhibition of aggregation is determined graphically from the measurement figures obtained.

[1] = parameters: species or system mice; settings: mouse, in vivo, iv, 200 mg/kg

CC(C)OC(=O)COc1ccc(NC(=O)N2CCN(C3CCNCC3)CC2)cc1 [4(6), Isopropyl [4-[[4-(4-piperidinyl)-piperazin-1-yl]carbonylamino]-phenoxy]acetate dihydrochloride]
IC50 (human platelets): 13000 nM | EC50 (Platelet aggregation; Homo sapiens, 10 min): 280 nM

CCOC(=O)COc1ccc(NC(=O)N2CCN(C3CCNCC3)CC2)cc1 [4(13), Ethyl [4-[[4-(4-piperidinyl)-piperazin-1-yl]carbonylamino]-phenoxy]acetate dihydrochloride]
IC50 (human platelets): 310 nM | EC50 (Platelet aggregation; Homo sapiens, 10 min): 130 nM

O=C(O)CC[C@H]1CC[C@H](NC(=O)N2CCN(C3CCNCC3)CC2)CC1 [Example 1(1), [3-[4-trans-[4-(4-Piperidinyl)-piperazin-1-yl]carbonylamino]cyclohexyl]propionic acid dihydrochloride]
IC50 (human platelets): 76 nM | EC50 (Platelet aggregation; Homo sapiens, 10 min): 95 nM

O=C(O)CCCC1CCN(C(=O)N2CCN(C3CCNCC3)CC2)CC1 [Example 1(13), N-[[4-(4-Piperidinyl)-piperazin-1-yl]-carbonyl]-4-(4-piperidinyl)-butyric acid dihydrochloride]
IC50 (human platelets): 270 nM | EC50 (Platelet aggregation; Homo sapiens, 10 min): 320 nM

O=C(O)COc1ccc(C(=O)CN2CCN(C3CCNCC3)CC2)cc1 [Example 1(19), [4-[[4-(4-Piperidinyl)-piperazin-1-yl]acetyl]phenoxyl-acetic acid trihydrochloride]
IC50 (human platelets): 200 nM | EC50 (Platelet aggregation; Homo sapiens, 10 min): 390 nM

O=C(O)COc1ccc(NC(=O)N2CCN(C3CCNCC3)CC2)cc1 [Example 1(23), [4-[[4-(4-Piperidinyl)-piperazin-1-yl]carbonylaminolphenoxyl-acetic acid dihydrochloride]
IC50 (human platelets): 67 nM | EC50 (Platelet aggregation; Homo sapiens, 10 min): 98 nM | toxic side effects [1]: no toxic side effects were observed

O=C(O)CCOC1CCN(C(=O)N2CCN(C3CCNCC3)CC2)CC1 [Example 1(30), N-[[4-(4-Piperidinyl)-piperazin-1-yl]carbonyl]-3-(piperidin-4-yloxy)-propionic acid dihydrochloride]
IC50 (human platelets): 210 nM | EC50 (Platelet aggregation; Homo sapiens, 10 min): 640 nM

O=C(CCN1CCN(C2CCNCC2)CC1)N[C@H]1CC[C@H](C(=O)O)CC1 [Example 1, [4-trans-[3-[4-(4-Piperidinyl)-piperazin-1-yl]propionyl]-amino]cyclohexanecarboxylic acid dihydrochloride]
IC50 (human platelets): 510 nM | EC50 (Platelet aggregation; Homo sapiens, 10 min): 240 nM

COC(=O)COc1ccc(C(=O)CN2CCN(C3CCNCC3)CC2)cc1 [Example 2(11), Methyl [4-[[4-(4-piperidinyl)-piperazin-1-yl]acetyl]phenoxyl-acetatetrihydrochloride]
IC50 (human platelets): 33000 nM | EC50 (Platelet aggregation; Homo sapiens, 10 min): 420 nM

CCOC(=O)CCOC1CCN(C(=O)N2CCN(C3CCNCC3)CC2)CC1 [Example 2(15), Ethyl N-[[4-(4-piperidinyl)-piperazin-1-yl]-carbonyl]-3-(piperidin-4-yloxy)-propionate dihydrochloride]
IC50 (human platelets): 38000 nM | EC50 (Platelet aggregation; Homo sapiens, 10 min): > 10000 nM

COC(=O)COc1ccc(NC(=O)N2CCN(C3CCNCC3)CC2)cc1 [Example 3(7), Methyl [4-[[4-(4-piperidinyl)-piperazin-1-yl]carbonylamino]phenoxy]acetate dihydrochloride]
IC50 (human platelets): 270 nM | EC50 (Platelet aggregation; Homo sapiens, 10 min): 110 nM

CC(C)(C)OC(=O)COc1ccc(NC(=O)N2CCN(C3CCNCC3)CC2)cc1 [Example 3(11), tert-Butyl [4-[[4-(4-piperidinyl)-piperazin-1-yl]carbonylamino]-phenoxy]acetate dihydrochloride]
IC50 (human platelets): 630 nM | EC50 (Platelet aggregation; Homo sapiens, 10 min): 980 nM

CC(C)COC(=O)COc1ccc(NC(=O)N2CCN(C3CCNCC3)CC2)cc1 [Example 4(7), Isobutyl [4-[[4-(4-piperidinyl)-piperazin-1-yl]carbonylamino]-phenoxy]acetate dihydrochloride]
IC50 (human platelets): 18000 nM | EC50 (Platelet aggregation; Homo sapiens, 10 min): 100 nM

CC(C)(C)COC(=O)COc1ccc(NC(=O)N2CCN(C3CCNCC3)CC2)cc1 [Example 4(8), Neopentyl [4-[[4-(4-piperidinyl)-piperazin-1-yl]carbonylamino]-phenoxy]acetate dihydrochloride]
IC50 (human platelets): 170 nM | EC50 (Platelet aggregation; Homo sapiens, 10 min): 120 nM

O=C(COc1ccc(NC(=O)N2CCN(C3CCNCC3)CC2)cc1)OC1CCCC1 [Example 4(9), Cyclopentyl [4-[[4-(4-piperidinyl)-piperazin-1-yl]carbonylamino]-phenoxy]acetate dihydrochloride]
IC50 (human platelets): 4700 nM | EC50 (Platelet aggregation; Homo sapiens, 10 min): 160 nM

O=C(COc1ccc(NC(=O)N2CCN(C3CCNCC3)CC2)cc1)OC1CCCCCC1 [Example 4(10), Cycloheptyl [4-[[4-(4-piperidinyl)-piperazin-1-yl]carbonylamino]-phenoxy]acetate dihydrochloride]
IC50 (human platelets): 590 nM | EC50 (Platelet aggregation; Homo sapiens, 10 min): 91 nM

CCCCOC(=O)COc1ccc(NC(=O)N2CCN(C3CCNCC3)CC2)cc1 [Example 4(11), Butyl [4-[[4-(4-piperidinyl)-piperazin-1-yl]carbonylamino]-phenoxy]acetate dihydrochloride]
IC50 (human platelets): 19000 nM | EC50 (Platelet aggregation; Homo sapiens, 10 min): 110 nM

O=C(COc1ccc(NC(=O)N2CCN(C3CCNCC3)CC2)cc1)OC1CCCCC1 [Example 4(12), Cyclohexyl [4-[[4-(4-piperidinyl)-piperazin-1-yl]carbonylamino]-phenoxy]acetate dihydrochloride]
EC50 (Platelet aggregation; Homo sapiens, 10 min): 290 nM

O=C(CC[C@H]1CC[C@H](NC(=O)N2CCN(C3CCNCC3)CC2)CC1)OC1CCCCC1 [Example 4, Cyclohexyl 3-[4-trans-[[4-(4-piperidinyl)-piperazin-1-yl]carbonylamino]-cyclohexylpropionatedihydrochloride]
IC50 (human platelets): 270 nM | EC50 (Platelet aggregation; Homo sapiens, 10 min): 360 nM

O=C(O)CN1CCC(OCC(=O)N2CCN(C3CCNCC3)CC2)CC1 [Example 22(8), [4-[[[4-(piperidin-4-yl)-piperazin-1-yl]-carbonyl]-methyloxy]-piperidin-1-yl]-acetic acid]
IC50 (human platelets): 27 nM | EC50 (Platelet aggregation; Homo sapiens, 10 min): 100 nM

O=C(O)CN1CCC(CCC(=O)N2CCN(C3CCNCC3)CC2)CC1 [Example 24(1), [4-[2-[[4-(Piperidin-4-yl)-piperazin-1-yl]-carbonyl]-ethyl]-piperidin-1-yl]-acetic acid trihydrochloride]
IC50 (human platelets): 12 nM | EC50 (Platelet aggregation; Homo sapiens, 10 min): 94 nM

N-[4-[[4-(4-Piperidinyl)-piperazin-1-yl]carbonyl]piperi-dinyl]-β-alanine trihydrochloride [Example 1(5)]
IC50 (human platelets): 78 nM | EC50 (Platelet aggregation): 250 nM

— patent publication US5922717A, “Piperazine derivatives, medicaments comprising these compounds, their use and processes for their preparation” (priority 1994, dated 1999)
